# Literature values in article PMC8184532 (European Journal of Clinical Pharmacology, 2021).
# Where two headings read alike, the source gives them in different places.
# Tests used:
# [1] = coadministered with ritonavir; Stader et al.
smiles,measurement,setting,value
CCOC(=O)C1=C(COCCN)NC(C)=C(C(=O)OC)C1c1ccccc1Cl (stereo not shown) [amlodipine],increase in amlodipine exposure,"coadministered with antiviral agents for chronic hepatitis C or ritonavir-boosted indinavir, non-compartmental analyses",2 fold
same,increase in amlodipine exposure,"coadministered with ritonavir-boosted indinavir, healthy volunteers",90%
same,increase in amlodipine exposure,"in the presence of diltiazem, a CYP3A4 inhibitor, summary of product characteristics",60%
same,increase in amlodipine exposure,[1],90%
